In ChEMBL document CHEMBL1667851, “Synthesis and pharmacological evaluation of the individual stereoisomers of 3-[methyl(1,2,3,4-tetrahydro-2-naphthalenyl)amino]-1-indanone, a potent mast cell stabilising agent” (Bioorg Med Chem Lett, 2011):

Columns and labels:
Mus musculus [1] = assay: Inhibition of IgE-induced PCA reaction in albino Swiss mouse at 3 mg/kg administered intradermally; type: functional; design: Activity: scale not given: the % may be the effect or the level left; conditions: for inhibition in vivo at 3 mg/kg: Mus musculus, albino Swiss
Mast cell [2] = assay: Inhibition of A23187-induced histamine release in rat peritoneal mast cells; type: functional, cell-based
Mast cell [3] = assay: Inhibition of anti-IgE-induced histamine release in porcine lung mast cells at 20 uM; type: functional; conditions: Sus scrofa
Mast cell [4] = assay: Inhibition of A23187-induced histamine release in porcine peritoneal mast cells at 20 uM; type: functional; conditions: Sus scrofa
Mast cell [5] = assay: Inhibition of compound 48/80-induced histamine release in rat peritoneal mast cells; type: functional, cell-based
Mast cell [6] = assay: Inhibition of concanavalin A-induced histamine release in rat peritoneal mast cells; type: functional, cell-based
Mast cell [7] = assay: Inhibition of vancomycin-induced histamine release in rat peritoneal mast cells; type: functional, cell-based
Mus musculus [8] = assay: Inhibition of IgE-induced PCA reaction in intradermally dosed albino Swiss mouse; type: functional, organism-based

Structure (SMILES) | inhibition in vivo at 3 mg/kg (Mus musculus [1]) [%] | IC50 (Mast cell [2]) [µM] | inhibition at 20 µM (Mast cell [3]) [%] | inhibition at 20 µM (Mast cell [4]) [%] | IC50 (Mast cell [5]) [µM] | IC50 (Mast cell [6]) [µM] | IC50 (Mast cell [7]) [µM] | inhibition (Mus musculus [8]) | Activity (Mus musculus [1]) [%]
CN(C1CCc2ccccc2C1)C1CC(=O)c2ccccc21 (centres undefined) | 83 | – | – | – | – | – | – | – | –
CN([C@@H]1CCc2ccccc2C1)[C@@H]1CC(=O)c2ccccc21 | 77 | 9.48 | 89 | 22 | 3.03 | 13.1 | – | – | –
CN([C@@H]1CCc2ccccc2C1)[C@H]1CC(=O)c2ccccc21 | 111 | 4.08 | 53 | 31 | 1.51 | 16.9 | 4.47 | Dose-dependent effect | –
CN([C@H]1CCc2ccccc2C1)[C@H]1CC(=O)c2ccccc21 | 73 | 8.06 | 86 | 40 | 1.49 | 1.6 | – | – | –
CN([C@H]1CCc2ccccc2C1)[C@@H]1CC(=O)c2ccccc21 | 68 | 6.97 | 81 | 48 | 2.18 | 1.6 | 12.6 | – | –
O=C([O-])c1cc(=O)c2c(OCC(O)COc3cccc4oc(C(=O)[O-])cc(=O)c34)cccc2o1.[Na+].[Na+] [CROMOLYN SODIUM] | – | – | – | – | – | – | – | – | 73
